For one assay, the target named is T1, Human DHODH (Homo sapiens, UniProt Q02127).
T1 construct: C-terminal His6-tagged HsDHODH residues 29-395 in pET-22b (start ^29MATGDE); His6 (C); made in house; host or cells: E. coli BL21-DE3 (phage-resistant)
As to the kind of experiment: DHODH inhibition, steady-state DCIP assay (human DHODH). It counts as biochemical. Conditions: recombinant HsDHODH, DCIP method, 25°C, 5 nM enzyme; top concentration 100 µM or 30 µM.

The test system of another assay is P. falciparum 3D7. The assay is described as follows: Asexual blood-stage growth inhibition assay, SYBR green method. It counts as cell-based. Conditions: Plasmodium falciparum, 3D7, 72 h, ring-stage 3D7 parasites.
The target in a further assay is T2, P. falciparum DHODH (Plasmodium falciparum, UniProt Q08210).
T2 construct: His6 (N); made in house; host or cells: E. coli BL21-DE3 (phage-resistant)
T2 sequence (Q08210 158-569): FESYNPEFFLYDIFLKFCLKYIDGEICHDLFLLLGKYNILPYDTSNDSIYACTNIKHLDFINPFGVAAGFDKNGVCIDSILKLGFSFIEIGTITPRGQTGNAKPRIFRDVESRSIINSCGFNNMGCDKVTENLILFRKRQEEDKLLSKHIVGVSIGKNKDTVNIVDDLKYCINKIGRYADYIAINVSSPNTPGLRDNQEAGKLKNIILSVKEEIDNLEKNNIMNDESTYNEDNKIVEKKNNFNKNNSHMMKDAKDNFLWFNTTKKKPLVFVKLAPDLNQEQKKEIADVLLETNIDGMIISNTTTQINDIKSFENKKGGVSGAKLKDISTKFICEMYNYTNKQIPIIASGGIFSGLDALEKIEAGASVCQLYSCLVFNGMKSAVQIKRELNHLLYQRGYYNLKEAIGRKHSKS
The assay is described as follows: DHODH inhibition, steady-state DCIP assay (PfDHODH). Type of assay: biochemical. Conditions: recombinant PfDHODH, DCIP method, 25°C, 5 nM enzyme.

The target of the next assay is P. vivax DHODH (Plasmodium vivax, UniProt A5K1N1). As to the kind of experiment: DHODH inhibition, steady-state DCIP assay (PvDHODH). To be noted: recombinant PvDHODH, DCIP method, 25°C, 5 nM enzyme; read-out: P. vivax DHODH (IC50). Type of assay: biochemical.
P. vivax DHODH, sequence (A5K1N1 entry or part of it): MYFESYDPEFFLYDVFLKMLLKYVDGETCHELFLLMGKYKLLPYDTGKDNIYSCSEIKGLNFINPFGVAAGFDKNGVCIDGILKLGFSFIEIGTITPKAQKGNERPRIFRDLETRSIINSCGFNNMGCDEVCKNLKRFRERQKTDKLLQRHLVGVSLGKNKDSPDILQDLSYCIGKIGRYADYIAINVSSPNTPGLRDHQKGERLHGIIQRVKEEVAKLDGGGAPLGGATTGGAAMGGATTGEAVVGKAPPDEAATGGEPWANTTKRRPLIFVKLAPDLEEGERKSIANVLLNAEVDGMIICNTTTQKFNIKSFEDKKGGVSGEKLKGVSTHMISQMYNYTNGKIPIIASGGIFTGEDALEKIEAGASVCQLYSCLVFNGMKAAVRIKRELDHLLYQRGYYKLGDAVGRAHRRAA

Usually IC50 stands for the point on the concentration scale where inhibition reaches its midpoint. The EC50 is the concentration that produces a half-maximal response. A higher EC50 goes with lower potency in that assay.

T1 sequence (Q02127 29-395): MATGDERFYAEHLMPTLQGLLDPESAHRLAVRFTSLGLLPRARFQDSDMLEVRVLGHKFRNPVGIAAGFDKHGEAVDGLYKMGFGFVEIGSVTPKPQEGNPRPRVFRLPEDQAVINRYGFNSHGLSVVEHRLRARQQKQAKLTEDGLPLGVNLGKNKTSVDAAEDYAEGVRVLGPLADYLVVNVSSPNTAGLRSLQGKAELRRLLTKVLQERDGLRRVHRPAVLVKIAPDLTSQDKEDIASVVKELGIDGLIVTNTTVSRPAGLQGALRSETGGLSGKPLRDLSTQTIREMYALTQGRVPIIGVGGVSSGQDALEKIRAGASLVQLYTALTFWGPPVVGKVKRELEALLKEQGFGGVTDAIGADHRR

As to `Cn1nc2c(=O)n(CC(F)(F)F)cnc2c1[C@](O)(c1ccc(C(F)(F)F)c(Cl)c1)C(F)(F)F` [5-26, (R)-3-(1-(3-chloro-4-(trifluoromethyl)phenyl)-2,2,2-trifluoro-1-hydroxyethyl)-2-methyl-6-(2,2,2-trifluoroethyl)-2,6-dihydro-7H-pyrazolo[4,3-d]pyrimidin-7-one], the IC50 on Human DHODH is above 30000 nM; on P. falciparum DHODH, 17 nM; at P. vivax DHODH, 25 nM. In the assay with P. falciparum 3D7, this compound gave an EC50 of 0.39 nM.

The values above are taken from patent EP4680608B1, “2,6-DIHYDRO-7H-PYRAZOLO[3,4-C]PYRIDIN-7-ONE DERIVATIVES AS ANTI-MALARIAL AGENTS” (MMV Medicines for Malaria Venture, priority 2024, dated 2025).
